# Test results reported in US9724347B2, “1-pyrazolyl-3-(4-((2-anilinopyrimidin-4-yl)oxy)napththalen-1-yl) ureas as P38 MAP knase inhibitors” (Respivert Ltd., priority 2011, dated 2017).
# How the values were obtained:
# d-U937 cells = assay: Cell viability: MTT assay; format: cell-based, human; details: 1 μg/mL
# Method: Differentiated U937 cells were pre-incubated with each test compound (final concentration 1 μg/mL or 10 μg/mL in 200 μL media indicated below) under two protocols: the first for 4 hr in 5% FCS RPMI1640 media and the second in 10% FCS RPMI1640 media for 24 h. The supernatant was replaced with new media (200 μL) and MTT stock solution (10 μL, 5 mg/mL) was added to each well. After incubation for 1 hr the media were removed, DMSO (200 μL) was added to each well and the plates were shaken lightly for 1 hr prior to reading the absorbance at 550 nm. The percentage loss of cell viability was calculated for each well relative to vehicle (0.5% DMSO) treatment. Consequently an apparent increase in cell viability for drug treatment relative to vehicle is tabulated as a negative percentage.
# [1] = test system: ICAM-1 expression in BEAS2B cells; assay: Poly I:C-induced ICAM-1 expression in BEAS2B cells; format: cell-based, human; details: Homo sapiens, BEAS-2B, read-out: PolyIC/ICAM1 IC50 (BEAS2B)
# Method: Poly I:C was used in these studies as a simple, RNA virus mimic. Poly I:C-Oligofectamine mixture (1 μg/mL Poly I:C, ±2% Oligofectamine, 25 μL; Invivogen Ltd., San Diego, Calif., and Invitrogen, Carlsbad, Calif., respectively) was transfected into BEAS2B cells (human bronchial epithelial cells, ATCC). Cells were pre-incubated with final concentrations of test compounds for 2 hr and the level of ICAM-1 expression on the cell surface was determined by cell-based ELISA. At a time point 18 hr after poly I:C transfection, cells were fixed with 4% formaldehyde in PBS (100 μL) and then endogenous peroxidase was quenched by the addition of washing buffer (100 μL, 0.05% Tween in PBS: PBS-Tween) containing 0.1% sodium azide and 1% hydrogen peroxide. Cells were washed with wash-buffer (3×200 μL). and after blocking the wells with 5% milk in PBS-Tween (100 μL) for 1 hr, the cells were incubated with anti-human ICAM-1 antibody (50 μL; Cell Signaling Technology, Danvers, Mass.) in 1% BSA PBS overnight at 4° C.
# The cells were washed with PBS-Tween (3×200 μL) and incubated with the secondary antibody (100 μL; HRP-conjugated anti-rabbit IgG, Dako Ltd., Glostrup, Denmark). The cells were then incubated with of substrate (50 μL) for 2-20 min, followed by the addition of stop solution (50 μL, 1N H2SO4). The ICAM-1 signal was detected by reading […] the absorbance at 450 nm against a reference wavelength of 655 nm using a spectrophotometer. The cells were then washed with PBS-Tween (3×200 μL) and total cell numbers in each well were determined by reading absorbance at 595 nm after Crystal Violet staining (50 μL of a 2% solution in PBS) and elution by 1% SDS solution (100 μL) in distilled water. The measured OD 450-655 readings were corrected for cell number by dividing with the OD595 reading in each well. The inhibition of ICAM-1 expression was calculated at each concentration of test compound by comparison with vehicle control.
# p38MAPKγ (MAPK12) = p38MAPKγ (MAPK12) (Homo sapiens (Human), UniProt P53778); assay: p38 MAPKγ enzyme inhibition (FRET, Z-LYTE); format: biochemical
# Method: The enzyme inhibitory activities of compounds disclosed herein were determined by FRET using synthetic peptides labelled with both donor and acceptor fluorophores (Z-LYTE, Invitrogen Ltd., Paisley, UK). […] Development reagent (protease, 5 μL) was added for 1 hr prior to detection in a fluorescence microplate reader (Varioskan® Flash, Thermo Scientific). In all cases, the site-specific protease cleaves non-phosphorylated peptide only and eliminates the FRET signal. Phosphorylation levels of each reaction were calculated using the ratio of coumarin emission (donor) over fluorescein emission (acceptor), for which low ratios indicate high phosphorylation and high ratios indicate low phosphorylation levels.
# GSK 3α enzyme isoform = GSK 3α enzyme isoform (Homo sapiens (Human), UniProt P49840); assay: GSK 3α enzyme inhibition (FRET, Z-LYTE); format: biochemical; details: read-out: IC50 Values for Enzyme Inhibition GSK3α
# Method: The enzyme inhibitory activities of compounds disclosed herein were determined by FRET using synthetic peptides labelled with both donor and acceptor fluorophores (Z-LYTE, Invitrogen Ltd., Paisley, UK).
# The inhibitory activities of test compounds against the GSK 3α enzyme isoform (Invitrogen), were evaluated by determining the level of activation/phosphorylation of the target peptide.
# The GSK3-α protein (500 ng/mL, 2.5 μL) was mixed with the test compound (2.5 μL at either 4 μg/mL, 0.4 μg/mL, 0.04 μg/mL, or 0.004 μg/mL) for 2 hr at RT. The FRET peptide (8 μM, 2.5 μL), which is a phosphorylation target for GSK3α, and ATP (40 μM, 2.5 μL) were then added to the enzyme/compound mixture and the resulting mixture incubated for 1 hr. Development reagent (protease, 5 μL) was added for 1 hr prior to detection in a fluorescence microplate reader (Varioskan® Flash, ThermoFisher Scientific).
# In all cases, the site-specific protease cleaves non-phosphorylated peptide only and eliminates the FRET signal. Phosphorylation levels of each reaction were calculated using the ratio of coumarin emission (donor) over fluorescein emission (acceptor), for which low ratios indicate high phosphorylation and high ratios indicate low phosphorylation levels.
# [2] = molecular target: p38 MAPKα isoform (MAPK14) (Homo sapiens (Human), UniProt Q16539); assay: p38 MAPKα enzyme inhibition (FRET, Z-LYTE); format: biochemical
# Method: The enzyme inhibitory activities of compounds disclosed herein were determined by FRET using synthetic peptides labelled with both donor and acceptor fluorophores (Z-LYTE, Invitrogen Ltd., Paisley, UK). The inhibitory activities of test compounds against the p38 MAPKα isoform (MAPK14: Invitrogen), were evaluated indirectly by determining the level of activation/phosphorylation of the down-stream molecule, MAPKAP-K2. […] The mixture was incubated for 1 hr at RT. Development reagent (protease, 5 μL) was added for 1 hr prior to detection in a fluorescence microplate reader (Varioskan® Flash, ThermoFisher Scientific). In all cases, the site-specific protease cleaves non-phosphorylated peptide only and eliminates the FRET signal. Phosphorylation levels of each reaction were calculated using the ratio of coumarin emission (donor) over fluorescein emission (acceptor), for which low ratios indicate high phosphorylation and high ratios indicate low phosphorylation levels.
# Chain of p38 MAPKα isoform (MAPK14) (Q16539 whole entry, canonical isoform): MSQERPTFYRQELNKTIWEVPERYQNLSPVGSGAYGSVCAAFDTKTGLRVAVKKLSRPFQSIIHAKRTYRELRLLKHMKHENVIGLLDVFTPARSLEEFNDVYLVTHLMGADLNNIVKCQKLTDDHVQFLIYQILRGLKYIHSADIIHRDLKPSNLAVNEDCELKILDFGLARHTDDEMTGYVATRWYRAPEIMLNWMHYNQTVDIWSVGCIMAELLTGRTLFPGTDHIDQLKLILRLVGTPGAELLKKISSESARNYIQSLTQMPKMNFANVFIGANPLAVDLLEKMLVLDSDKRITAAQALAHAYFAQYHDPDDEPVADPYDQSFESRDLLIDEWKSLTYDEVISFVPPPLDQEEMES
# Chain of p38MAPKγ (MAPK12) (P53778 whole entry): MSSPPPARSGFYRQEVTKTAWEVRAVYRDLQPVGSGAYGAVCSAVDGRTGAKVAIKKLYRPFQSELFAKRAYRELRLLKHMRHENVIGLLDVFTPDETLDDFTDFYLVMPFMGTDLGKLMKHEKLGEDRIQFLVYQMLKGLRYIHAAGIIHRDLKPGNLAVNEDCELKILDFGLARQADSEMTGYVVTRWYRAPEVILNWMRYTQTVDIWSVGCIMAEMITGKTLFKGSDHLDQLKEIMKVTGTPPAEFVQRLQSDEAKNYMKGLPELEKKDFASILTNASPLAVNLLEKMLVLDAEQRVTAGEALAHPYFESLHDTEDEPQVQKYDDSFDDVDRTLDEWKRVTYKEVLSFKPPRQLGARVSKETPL
# Chain of GSK 3α enzyme isoform (P49840 whole entry, canonical isoform): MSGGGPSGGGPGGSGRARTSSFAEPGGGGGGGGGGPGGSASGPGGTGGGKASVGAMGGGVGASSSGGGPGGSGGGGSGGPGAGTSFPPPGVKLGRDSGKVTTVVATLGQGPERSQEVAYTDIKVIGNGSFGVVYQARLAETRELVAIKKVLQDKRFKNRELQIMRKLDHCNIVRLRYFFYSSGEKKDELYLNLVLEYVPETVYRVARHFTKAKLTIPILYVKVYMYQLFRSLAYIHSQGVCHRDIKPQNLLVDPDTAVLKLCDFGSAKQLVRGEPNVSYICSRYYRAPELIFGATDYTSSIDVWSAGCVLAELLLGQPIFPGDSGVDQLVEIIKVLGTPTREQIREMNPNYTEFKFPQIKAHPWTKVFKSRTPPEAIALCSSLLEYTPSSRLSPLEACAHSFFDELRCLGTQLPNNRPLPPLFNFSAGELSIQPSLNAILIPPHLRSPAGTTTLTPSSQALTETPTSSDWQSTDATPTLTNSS
SMILES,MTT Assay Cell viability at time point in d-U937 Cells (d-U937 cells; 4 h),MTT Assay Cell viability at time point in d-U937 Cells (d-U937 cells; 24 h),IC50 [1] [nM],IC50 (p38MAPKγ (MAPK12)) [nM],IC50 (GSK 3α enzyme isoform) [nM],IC50 [2] [nM]
"COc1ccc(Nc2nccc(Oc3ccc(NC(=O)Nc4cc(C(C)(C)C)nn4-c4ccc(C)cc4)c4ccccc34)n2)cc1 [Example 17, 1-(3-(tert-butyl)-1-(p-tolyl)-1H-pyrazol-5-yl)-3-(4-((2-((4-methoxyphenyl)amino)pyrimidin-4-yl)oxy)naphthalen-1-yl)urea]","−ve (−ve and +ve indicate the value is below and above respectively, the no significant effect threshold defined as 30% inhibition at 1 μg/mL at the time point indicated)","−ve (−ve and +ve indicate the value is below and above respectively, the no significant effect threshold defined as 30% inhibition at 1 μg/mL at the time point indicated)",6.7,> 16300,> 16300,83
"Cc1ccc(-n2nc(C(C)(C)C)cc2NC(=O)Nc2ccc(Oc3ccnc(Nc4ccccc4C(C)C)n3)c3ccccc23)cc1 [Example 20, 1-(3-(tert-butyl)-1-(p-tolyl)-1H-pyrazol-5-yl)-3-(4-((2-((2-isopropylphenyl)amino)pyrimidin-4-yl)oxy)naphthalen-1-yl)urea]","−ve (−ve and +ve indicate the value is below and above respectively, the no significant effect threshold defined as 30% inhibition at 1 μg/mL at the time point indicated)","−ve (−ve and +ve indicate the value is below and above respectively, the no significant effect threshold defined as 30% inhibition at 1 μg/mL at the time point indicated)",16,> 16000,> 16000,9
"Cc1ccc(-n2nc(C(C)(C)C)cc2NC(=O)Nc2ccc(Oc3ccnc(Nc4ccccc4C)n3)c3ccccc23)cc1 [Example 21, 1-(3-(tert-butyl)-1-(p-tolyl)-1H-pyrazol-5-yl)-3-(4-((2-(o-tolylamino)pyrimidin-4-yl)oxy)naphthalen-1-yl)urea]","−ve (−ve and +ve indicate the value is below and above respectively, the no significant effect threshold defined as 30% inhibition at 1 μg/mL at the time point indicated)","−ve (−ve and +ve indicate the value is below and above respectively, the no significant effect threshold defined as 30% inhibition at 1 μg/mL at the time point indicated)",36,> 1670,> 1670,33
"Cc1ccc(-n2nc(C(C)(C)C)cc2NC(=O)Nc2ccc(Oc3ccnc(Nc4ccc(F)cc4)n3)c3ccccc23)cc1 [Example 23, 1-(3-(tert-butyl)-1-(p-tolyl)-1H-pyrazol-5-yl)-3-(4-((2-((4-fluorophenyl)amino)pyrimidin-4-yl)oxy)naphthalen-1-yl)urea]","−ve (−ve and +ve indicate the value is below and above respectively, the no significant effect threshold defined as 30% inhibition at 1 μg/mL at the time point indicated)","−ve (−ve and +ve indicate the value is below and above respectively, the no significant effect threshold defined as 30% inhibition at 1 μg/mL at the time point indicated)",4.2,> 1660,> 1660,212
"COc1ccc(Nc2nccc(Oc3ccc(NC(=O)Nc4cc(C(C)(C)C)nn4-c4ccc(C)cc4)c4ccccc34)n2)cc1Cl [Example 28, 1-(3-(tert-butyl)-1-(p-tolyl)-1H-pyrazol-5-yl)-3-(4-((2-((3-chloro-4-methoxyphenyl)amino)pyrimidin-4-yl)oxy)naphthalen-1-yl)urea]","−ve (−ve and +ve indicate the value is below and above respectively, the no significant effect threshold defined as 30% inhibition at 1 μg/mL at the time point indicated)","−ve (−ve and +ve indicate the value is below and above respectively, the no significant effect threshold defined as 30% inhibition at 1 μg/mL at the time point indicated)",3,> 1540,> 1540,1420
"Cc1ccc(-n2nc(C(C)(C)C)cc2NC(=O)Nc2ccc(Oc3ccnc(Nc4ccc(O)cc4F)n3)c3ccccc23)cc1 [Example 30, 1-(3-(tert-butyl)-1-(p-tolyl)-1H-pyrazol-5-yl)-3-(4-((2-((2-fluoro-4-hydroxyphenyl)amino)pyrimidin-4-yl)oxy)naphthalen-1-yl)urea]","−ve (−ve and +ve indicate the value is below and above respectively, the no significant effect threshold defined as 30% inhibition at 1 μg/mL at the time point indicated)","−ve (−ve and +ve indicate the value is below and above respectively, the no significant effect threshold defined as 30% inhibition at 1 μg/mL at the time point indicated)",11,> 1620,> 1620,68
"Cc1ccc(-n2nc(C(C)(C)C)cc2NC(=O)Nc2ccc(Oc3ccnc(Nc4ccc(O)cc4Cl)n3)c3ccccc23)cc1 [Example 31, 1-(3-(tert-butyl)-1-(p-tolyl)-1H-pyrazol-5-yl)-3-(4-((2-((2-chloro-4-hydroxyphenyl)amino)pyrimidin-4-yl)oxy)naphthalen-1-yl)urea]","−ve (−ve and +ve indicate the value is below and above respectively, the no significant effect threshold defined as 30% inhibition at 1 μg/mL at the time point indicated)","−ve (−ve and +ve indicate the value is below and above respectively, the no significant effect threshold defined as 30% inhibition at 1 μg/mL at the time point indicated)",80,> 1580,> 1580,118
